Test results taken from patent US20240391926A1, “SPIROINDOLINONE COMPOUNDS AS Kv1.3 POTASSIUM SHAKER CHANNEL BLOCKERS” (D.E. Shaw Research, LLC, priority 2021, published 2024).

Molecular target: T1, Kv1.3 potassium channel (Homo sapiens, UniProt P22001)
T1 construct: expressed in transfected cells
Assay: Kv1.3 potassium channel blocker activity, automated whole-cell patch clamp (Patchliner) in CHO-K1 cells stably expressing Kv1.3
Format: cell-based
Conditions: 30 nM-100 μM
Outline: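 Whole-cell automated patch clamp in CHO-K1 cells, pH 7.4 external/7.2 internal; 100 ms steps from −90 to +40 mV at 0.1 Hz, 20-pulse trains. Cumulative 30 nM–100 μM on one cell, ≤10 s per concentration; last-pulse current normalized to control, IC50 from Hill fit.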

T1 sequence (P22001 whole entry): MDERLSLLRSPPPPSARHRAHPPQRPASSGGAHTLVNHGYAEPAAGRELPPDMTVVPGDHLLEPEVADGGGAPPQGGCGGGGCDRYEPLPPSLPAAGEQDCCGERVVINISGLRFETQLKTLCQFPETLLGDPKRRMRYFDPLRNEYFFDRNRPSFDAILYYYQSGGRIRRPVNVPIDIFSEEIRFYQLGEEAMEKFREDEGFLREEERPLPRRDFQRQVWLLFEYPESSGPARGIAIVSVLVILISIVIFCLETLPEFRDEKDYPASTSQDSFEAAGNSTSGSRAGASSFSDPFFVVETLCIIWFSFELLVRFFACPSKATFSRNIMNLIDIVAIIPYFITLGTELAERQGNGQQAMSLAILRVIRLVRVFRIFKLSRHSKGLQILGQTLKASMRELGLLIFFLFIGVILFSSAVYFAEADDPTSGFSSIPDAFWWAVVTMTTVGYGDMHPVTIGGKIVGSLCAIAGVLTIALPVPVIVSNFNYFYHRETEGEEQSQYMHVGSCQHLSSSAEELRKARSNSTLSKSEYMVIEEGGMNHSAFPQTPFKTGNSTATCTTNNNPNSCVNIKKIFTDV

Row | Compound | IC50 [µM]
1 | C[C@H]1C[C@@]2(CN1C(=O)CO)C(=O)Nc1cc(Cl)c(Cl)cc12 (single isomer, unassigned; isomer 4) [Compound 126, 5,6-dichloro-1′-(2-hydroxyacetyl)-5′-methyl-1H-spiro[indole-3,3′-pyrrolidin]-2-one isomer 4] | < 10
2 | O=C([C@@H]1CC[C@@H](O)C1)N1CC[C@]2(C1)C(=O)Nc1cc(Cl)c(Cl)cc12 (single isomer, unassigned; isomer 2) [Compound 64] | < 3
3 | O=C([C@@H]1CCOC1)N1CC[C@]2(C1)C(=O)Nc1cc(Cl)c(Cl)cc12 [Compound 24, (S)-5,6-dichloro-1′-((R)-tetrahydrofuran-3-carbonyl)Spiro[indoline-3,3′-pyrrolidin]-2-one] | < 3
4 | O=C(C1CNCC(F)(F)C1)N1CC[C@]2(C1)C(=O)Nc1cc(Cl)c(Cl)cc12 (stereo partly drawn) [Compound 50, (3S)-5,6-dichloro-1′-(5,5-difluoropiperidine-3-carbonyl)spiro[indoline-3,3′-pyrrolidin]-2-one] | < 1
5 | Cn1nc(C(=O)N2CC[C@]3(C2)C(=O)Nc2cc(Cl)c(Cl)cc23)cc1N [Compound 41, (S)-1′-(5-amino-1-methyl-1H-pyrazole-3-carbonyl)-5,6-dichlorospiro[indoline-3,3′-pyrrolidin]-2-one] | < 10
6 | O=C(N1CC[C@]2(C1)C(=O)Nc1cc(Cl)c(Cl)cc12)C1(O)CC1 [Compound 85, (S)-5,6-dichloro-1′-(1-hydroxycyclopropane-1-carbonyl)spiro[indoline-3,3′-pyrrolidin]-2-one] | < 10
7 | O=C([C@H]1CC[C@H](O)[C@@H](O)C1)N1CC[C@]2(C1)C(=O)Nc1cc(Cl)c(Cl)cc12 (single isomer, unassigned; isomer 2) [Compound 108] | < 3
8 | CC(C)C[C@@H](N)C(=O)N1CC[C@]2(C1)C(=O)Nc1cc(Cl)c(Cl)cc12 [Compound 44, (S)-1′-(D-leucyl)-5,6-dichlorospiro[indoline-3,3′-pyrrolidin]-2-one] | < 3
9 | NS(=O)(=O)N1CC[C@]2(C1)C(=O)Nc1cc(Cl)c(Cl)cc12 [Compound 142, (S)-5,6-dichloro-2-oxospiro[indoline-3,3′-pyrrolidine]-1′-sulfonamide] | < 3
10 | COC[C@@H]1C[C@@H](C(=O)N2CC[C@]3(C2)C(=O)Nc2cc(Cl)c(Cl)cc23)CN1 [Compound 110, (3S)-5,6-dichloro-1′-[(3R,5S)-5-(methoxymethyl)pyrrolidine-3-carbonyl]-1H-spiro[indole-3,3′-pyrrolidin]-2-one] | < 1
